Assay results from ChEMBL document CHEMBL4359845, “Synthesis and Evaluation of Carbonic Anhydrase Inhibitors with Carbon Monoxide Releasing Properties for the Management of Rheumatoid Arthritis” (J Med Chem, 2019).
Activity calls are given as the source filed them.

Columns and labels:
Carbonic anhydrase 9 [1] = biological target: T1, Carbonic anhydrase 9 (Homo sapiens, UniProt Q16790); assay: Inhibition of recombinant human carbonic anhydrase 9 incubated for 6 hrs prior to testing measured for 10 to 100 secs by phenol red-based stopped-flow CO2 hydration assay
Carbonic anhydrase 12 = Carbonic anhydrase 12 (Homo sapiens, UniProt O43570); assay: Inhibition of recombinant human carbonic anhydrase 12 incubated for 6 hrs prior to testing measured for 10 to 100 secs by phenol red-based stopped-flow CO2 hydration assay
Carbonic anhydrase 1 [2] = biological target: T2, Carbonic anhydrase 1 (Homo sapiens, UniProt P00915); assay: Inhibition of recombinant human carbonic anhydrase 1 incubated for 6 hrs prior to testing measured for 10 to 100 secs by phenol red-based stopped-flow CO2 hydration assay
Carbonic anhydrase 2 [3] = biological target: T3, Carbonic anhydrase 2 (Homo sapiens, UniProt P00918); assay: Inhibition of recombinant human carbonic anhydrase 2 incubated for 6 hrs prior to testing measured for 10 to 100 secs by phenol red-based stopped-flow CO2 hydration assay
Rattus norvegicus [4] = assay: (§1) Antihyperalgesic activity in complete freund's adjuvant-induced Sprague-Dawley rat arthritis model assessed as increase in hind paw withdrawal reflex thresholds at 100 mg/kg, po administered 14 days post complete freund's adjuvant challenge and measured up to 15 mins by analgesiometry-based paw pressure test; assay type: functional, organism-based
Rattus norvegicus [5] = assay: Effect on contralateral paw withdrawal reflex threshold in complete freund's adjuvant-induced Sprague-Dawley rat arthritis model at 100 mg/kg, po administered 14 days post complete freund's adjuvant challenge by analgesiometry-based paw pressure test; assay type: ADME, organism-based; settings: in vivo, 336 h
Rattus norvegicus [6] = assay: as §1, with “after 15” for “up”, “60” for “15”; assay type: functional, organism-based
Rattus norvegicus [7] = assay: (§2) Antihyperalgesic activity in complete freund's adjuvant-induced Sprague-Dawley rat arthritis model assessed as decrease in weight burden on contralateral to ipsilateral paw at 100 mg/kg, po administered 14 days post complete freund's adjuvant challenge and measured up to 15 mins by incapacitance test; assay type: functional, organism-based
Carbonic anhydrase 9 [8] = biological target: T1, Carbonic anhydrase 9; assay: Inhibition of recombinant human carbonic anhydrase 9 incubated for 15 mins prior to testing measured for 10 to 100 secs by phenol red-based stopped-flow CO2 hydration assay
Carbonic anhydrase 2 [9] = biological target: T3, Carbonic anhydrase 2; assay: Inhibition of recombinant human carbonic anhydrase 2 incubated for 15 mins prior to testing measured for 10 to 100 secs by phenol red-based stopped-flow CO2 hydration assay
Carbonic anhydrase 1 [10] = biological target: T2, Carbonic anhydrase 1; assay: Inhibition of recombinant human carbonic anhydrase 1 incubated for 15 mins prior to testing measured for 10 to 100 secs by phenol red-based stopped-flow CO2 hydration assay
Carbonic anhydrase 4 = Carbonic anhydrase 4 (Homo sapiens, UniProt P22748); assay: Inhibition of recombinant human carbonic anhydrase 4 incubated for 15 mins prior to testing measured for 10 to 100 secs by phenol red-based stopped-flow CO2 hydration assay
Rattus norvegicus [11] = assay: Effect on contralateral paw withdrawal reflex threshold in complete freund's adjuvant-induced Sprague-Dawley rat arthritis model at 42.4 mg/kg, po administered 14 days post complete freund's adjuvant challenge by analgesiometry-based paw pressure test; assay type: ADME, organism-based; settings: in vivo, 336 h
Rattus norvegicus [12] = assay: as §2, with “42.4” for “100”, “45” for “15”; assay type: functional, organism-based
Rattus norvegicus [13] = assay: as §1, with “42.4” for “100”, “after 45” for “up”, “60” for “15”; assay type: functional, organism-based
Rattus norvegicus [14] = assay: as §1, with “42.4” for “100”, “45” for “15”; assay type: functional, organism-based

T2 sequence (P00915 whole entry): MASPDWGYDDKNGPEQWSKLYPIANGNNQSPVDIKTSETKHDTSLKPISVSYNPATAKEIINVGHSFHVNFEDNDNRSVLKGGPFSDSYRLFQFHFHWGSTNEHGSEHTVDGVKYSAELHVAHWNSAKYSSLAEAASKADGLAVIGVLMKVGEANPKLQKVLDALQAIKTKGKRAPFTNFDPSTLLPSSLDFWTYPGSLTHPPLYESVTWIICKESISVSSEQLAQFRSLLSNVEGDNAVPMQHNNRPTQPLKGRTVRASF
Sequence of Carbonic anhydrase 12 (O43570 whole entry): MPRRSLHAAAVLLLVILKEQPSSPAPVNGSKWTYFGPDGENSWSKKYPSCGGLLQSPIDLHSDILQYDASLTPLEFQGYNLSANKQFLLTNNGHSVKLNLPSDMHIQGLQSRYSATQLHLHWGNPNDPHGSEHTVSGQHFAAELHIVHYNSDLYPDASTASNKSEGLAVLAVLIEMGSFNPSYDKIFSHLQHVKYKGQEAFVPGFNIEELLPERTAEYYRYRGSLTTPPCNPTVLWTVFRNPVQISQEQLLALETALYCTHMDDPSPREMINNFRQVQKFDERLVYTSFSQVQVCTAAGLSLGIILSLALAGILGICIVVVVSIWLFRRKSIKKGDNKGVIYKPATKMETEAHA
Sequence of Carbonic anhydrase 4 (P22748 whole entry): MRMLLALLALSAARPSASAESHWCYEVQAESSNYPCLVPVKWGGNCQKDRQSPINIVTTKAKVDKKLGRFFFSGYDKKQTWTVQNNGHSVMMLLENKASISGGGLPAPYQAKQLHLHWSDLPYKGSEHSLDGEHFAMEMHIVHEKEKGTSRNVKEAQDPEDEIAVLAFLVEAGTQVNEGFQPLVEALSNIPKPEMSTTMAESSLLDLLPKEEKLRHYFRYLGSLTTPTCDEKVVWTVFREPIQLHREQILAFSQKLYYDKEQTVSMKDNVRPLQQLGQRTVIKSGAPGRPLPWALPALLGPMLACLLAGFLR

Compound	Ki (Carbonic anhydrase 9 [1]) [nM]	Ki (Carbonic anhydrase 12) [nM]	Ki (Carbonic anhydrase 1 [2]) [nM]	Ki (Carbonic anhydrase 2 [3]) [nM]	Ki (Carbonic anhydrase 9 [8]) [nM]	Ki (Carbonic anhydrase 2 [9]) [nM]	Ki (Carbonic anhydrase 1 [10]) [nM]	further results
CC(C)Cc1ccc(C(C)C(=O)O)cc1 (stereo not given) [IBUPROFEN]								Activity (Rattus norvegicus [4]): Active; Activity (Rattus norvegicus [5]): Non-Toxic; Activity (Rattus norvegicus [6]): inactive; Activity (Rattus norvegicus [7]): Active
C#CCOc1ccc2oc(=O)ccc2c1			> 10000	> 10000				
C#CCSc1ccc(S(N)(=O)=O)cc1					7.6	29.5	30.2	
C#CCNc1ccc2c(C)cc(=O)oc2c1	171	34.7						
C#CCNc1ccc(S(N)(=O)=O)cc1					416	96.5	852	Ki (Carbonic anhydrase 4): > 10000 nM; Activity (Rattus norvegicus [11]): Non-Toxic; Activity (Rattus norvegicus [12]): Active; Activity (Rattus norvegicus [13]): inactive; Activity (Rattus norvegicus [14]): Active

Continued, in another order:

Ki (Carbonic anhydrase 9 [1]) [nM]	Ki (Carbonic anhydrase 12) [nM]	Ki (Carbonic anhydrase 1 [2]) [nM]	Ki (Carbonic anhydrase 2 [3]) [nM]	Ki (Carbonic anhydrase 9 [8]) [nM]	Ki (Carbonic anhydrase 2 [9]) [nM]	Ki (Carbonic anhydrase 1 [10]) [nM]	Compound	further results
474	44.5	> 10000	> 10000				C#CCOc1ccc2c(c1)C=CS(=O)(=O)O2	
6190	30.3	> 10000	> 10000				C#CCOc1ccc2c(c1)OS(=O)(=O)C=C2	
				3.8	0.44	817	C#CCN(CC#C)CCCCOc1ccc(S(N)(=O)=O)cc1	
